Source: US20140248212A1, “NON-IMMUNOGENIC POSITRON EMISSION TOMOGRAPHY REPORTER GENE SYSTEMS” (THE REGENTS OF THE UNIVERSITY OF CALIFORNIA, priority 2011, published 2014)

Columns and labels:
[1] = system: L1210 tumors expressing TK2-N93D; experiment: microPET/CT of SCID mice bearing L1210-PRG tumors (TK2-N93D); assay type: in vivo; conditions: for in vivo L-18F-FMAU uptake compared with WT TK2-expressing tumors: 3 h post-injection
Source text: To compare TK2, TK2-N93D and HSV1-sr39tk in vivo, PRG-expressing L1210 cells were implanted subcutaneously in SCID mice that were then scanned with L-[^18F]FMAU (FIG. 10A) and [^18F]FHBG (FIG. 10C) on consecutive days. […] Signals obtained with sr39tk were slightly higher than those obtained with the human TK2-N93D PRG (the difference was not statistically significant). […] L-[^18F]FMAU accumulation in TK2-N93D transduced tumors was ˜20 times higher than the accumulation in tumors transduced with the control (eYFP only) vector. While this ratio is higher than the 6.67 ratio reported for WT TK2 as a PRG with D-[^18F]FEAU as the PRP (see, e.g. Ponomarev, V., et al. J Nucl Med 48:819-826, 2007), the HSV1-sr39tk/[^18F]FHBG combination still outperforms the TK2-N93D/L-[^18F]FMAU combination by ˜2-fold. The significance of the 2-fold difference for the sensitivity of the new TK2-N93D PRG can be further investigated in the animal models discussed below (see, e.g. Gerth, M. L., et al. Biochem Biophys Res Commun 354:802-807, 2007; Liu, L., et al. Nucleic Acids Res 37:4472-4481, 2009; Iyidogan, P., et al. Biochemistry 47:4711-4720, 2008; Lutz, S., et al. Chimia (Aarau) 63:737-744 2009).
(§1) Animal studies were approved and carried out according to specific guidelines. C57/BL6 mice were injected with the indicated probe and underwent micro-PET/CT analyses at 1- and 3-h post probe injection (Inveon, Siemens Medical Solutions USA Inc.; microCAT; Imtek Inc.). For tumor imaging studies, SCID mice were injected subcutaneously on day −7 in the right and left flanks with 1×10^6 L1210-PRG-expressing cells in 50% v/v phosphate-buffered saline and 50% v/v Matrigel™ (BD Biosciences). For imaging experiments, mice were kept warm and under gas anesthesia (2% v/v isoflurane) and were injected intravenously with 200 μCi of ^18F-labeled probes. A 3-h interval was allowed between probe administration and microPET/CT scanning Static microPET images were acquired for 600 s. Image data were evaluated in three-dimensional histograms and reconstructed with a zoom factor of 2.1 using three-dimensional ordered set expectation maximization (OSEM) with 2 iterations followed by MAP (maximum a posteriori) reconstruction with 18 iterations (beta=0.1). Images were analyzed using OsiriX Imaging Software Version 3.8.

[2] = system: L1210 tumors expressing TK2-N93D/L109F; experiment: microPET/CT of SCID mice bearing L1210-PRG tumors (TK2-N93D/L109F); assay type: in vivo
Procedure: as §1
Mice implanted with L1210 cells expressing TK2-based PRGs were scanned by microPET/CT using L-^18F-FMAU (FIG. 30A). For comparison, mice implanted with L1210 cells expressing HSV1-sr39tk were scanned by microPET/CT using ^18F-FHBG (FIG. 30B).

[3] = system: TK2-L109F-expressing L1210 cells; experiment: L-18F-FMAU uptake assay, transduced L1210 cells (TK2-L109F); assay type: cell-based, murine; conditions: in the presence of 5 μM D-dT
Procedure: (§2) The L1210 cell line (see, e.g. Jordheim, L. P., et al. (2004) Clin. Cancer Res. 10, 5614-5621) was a gift. Cells were cultured at 5% v/v CO2 and 37° C. in RPMI supplemented with 5% v/v FCS. Murine stem cell virus (pMSCV)-based helper-free retroviruses encoding the TK2 mutants (or sr39tk), an internal ribosomal entry site, and the yellow fluorescent protein (YFP) were produced by transient co-transfection of the amphotrophic retrovirus packaging cell line Phoenix (American Type Culture Collection, SD 3443) (see, e.g. Hawley, R. G., et al. (1994) Gene. Ther. 1, 136-138). L1210 cells underwent spinfection with the pMSCV-TK2 mutants-internal ribosomal entry site-YFP retrovirus with 2 μg/ml Polybrene (1000×g, 120 min, 37° C.). L1210 cells expressing various PRGs, (L1210-PRG) were FACS-sorted to ensure that each population had equivalent levels of PRG expression.
(§3) L1210 cells transduced with the indicated PET reporter genes (L1210-PRG) were seeded at a density of 500,000 cells/well in 24-well plates. 5 μCi of L-^18F-FMAU were added to the L1210-PRG cells simultaneously with the indicated amounts of D-thymidine (D-dT) at a final volume of 1 ml/well. After 1 h at 37° C., cells were harvested and washed four times with ice-cold PBS. Radioactivity was measured using a gamma counter.

[4] = system: TK2-N93D/L109F-expressing L1210 cells; experiment: L-18F-FMAU uptake assay, transduced L1210 cells (TK2-N93D/L109F); assay type: cell-based, murine
Procedure: as §2, §3

Cc1cn([C@H]2O[C@@H](CO)[C@H](O)[C@H]2[18F])c(=O)[nH]c1=O [L-^18F-FMAU, 2′-deoxy-2′-^18F-5-methyl-1-β-L-arabinofuranosyluracil]
in vivo L-18F-FMAU uptake compared with WT TK2-expressing tumors [1]: nearly double | in vivo L-18F-FMAU uptake compared with WT TK2-expressing tumors ([1]; listed as 18F-L-FMAU): two-fold increase | in vivo L-18F-FMAU uptake compared with WT TK2-expressing tumors ([1]; listed as L-[^18F]FMAU): improved accumulation | L-[18F]FMAU accumulation relative to tumors transduced with control (eYFP only) vector ([1]; 3 hrs post-injection): ~20 times | probe uptake in L1210 tumors ([2]; L-18F-FMAU, 3 h post-injection): 19.9±1.5 % injected dose/g | L-18F-FMAU uptake, higher than that of TK2-N93D-expressing cells ([2]; in vivo, FIG. 30C): 2.6 fold | L-18F-FMAU uptake as percentage of the corresponding uptake for TK2-N93D/L109F [3]: 31% | decrease of L-18F-FMAU uptake [3]: 37% | in vitro uptake of 18F-L-FMAU compared to TK2-N0 ([4]; TK2-N5 (TK2-N93D/L109F)): two-fold increase | inhibition of uptake by thymidine compared to TK2-N0 ([4]; TK2-N5 (TK2-N93D/L109F)): less resistance to inhibition by thymidine | L-18F-FMAU uptake, higher than that of TK2-L109F cells ([4]; absence of D-dT): ~4 times | L-18F-FMAU uptake, higher than that of TK2-N93D cells ([4]; absence of D-dT): 1.5 times | decrease of L-18F-FMAU uptake ([4]; in the presence of 5 μM D-dT): 47%
